Reference: DBAASP
≈ marks a conversion by molar mass, not a printed value. Where “and” joins values, the source holds several entries; their conditions need not be identical. Equal values may be shown once.

Assays:
Assay in all cases: ≥ marks a high value that may be exact or a test limit, other limits are often not marked, values filed in µg/mL are converted to µM
[1] = tested on: Bacillus subtilis ATCC 6633
[2] = tested on: Candida albicans ATCC 20032
[3] = tested on: Escherichia coli ATCC 25922
[4] = tested on: Staphylococcus aureus ATCC 25923
[5] = tested on: Acinetobacter baumannii NM8
[6] = tested on: Candida albicans ATCC 90028
[7] = tested on: Escherichia coli ATCC 25726
[8] = tested on: Klebsiella pneumoniae ATCC 700603
[9] = tested on: Pseudomonas aeruginosa ATCC 27853
[10] = tested on: Staphylococcus epidermidis RP62A/1
[11] = tested on: Staphylococcus epidermidis RP62A
[12] = tested on: Stenotrophomonas maltophilia B32/4
[13] = tested on: Bacillus anthracis Sterne 34F2
[14] = tested on: Bacillus subtilis var. niger ATCC 9372
[15] = tested on: Escherichia coli K91BK
[16] = tested on: Bacillus subtilis KCTC 1918
[17] = tested on: Candida albicans ATCC 64550
[18] = tested on: Candida albicans CCARM 14001
[19] = tested on: Candida albicans CCARM 14007
[20] = tested on: Escherichia coli CCARM 1229
[21] = tested on: Escherichia coli CCARM 1238
[22] = tested on: Escherichia coli KCTC 1682
[23] = tested on: Listeria monocytogenes KCTC 3710
[24] = tested on: Pseudomonas aeruginosa KCTC 1637
[25] = tested on: Salmonella typhimurium CCARM 8007
[26] = tested on: Salmonella typhimurium CCARM 8009
[27] = tested on: Salmonella typhimurium CCARM 8013
[28] = tested on: Salmonella typhimurium KCTC 1926
[29] = tested on: Staphylococcus aureus CCARM 3089
[30] = tested on: Staphylococcus aureus CCARM 3090
[31] = tested on: Staphylococcus aureus CCARM 3108
[32] = tested on: Staphylococcus aureus CCARM 3114
[33] = tested on: Staphylococcus aureus CCARM 3126
[34] = tested on: Staphylococcus aureus KCTC 1621
[35] = tested on: Bacillus megaterium Bm11
[36] = tested on: Candida albicans ATCC 10231
[37] = tested on: Staphylococcus aureus Cowan 1
[38] = tested on: Staphylococcus capitis 1
[39] = tested on: Yersinia pseudotuberculosis YPIII
[40] = tested on: Escherichia coli ATCC 10536
[41] = tested on: Saccharomyces cerevisiae IFO 1850
[42] = tested on: Acinetobacter baumannii NM35

For `CC[C@H](C)[C@H](NC(=O)CN)C(=O)NCC(=O)N[C@H](C(=O)N[C@@H](CCCCN)C(=O)N[C@@H](Cc1ccccc1)C(=O)N[C@@H](CC(C)C)C(=O)NCC(=O)NCC(=O)N[C@H](C(=O)N[C@@H](CCCCN)C(=O)N[C@H](C(=O)N[C@@H](C)C(=O)N[C@@H](CC(C)C)C(=O)N[C@@H](CCCCN)C(=O)NCC(=O)N[C@@H](C)C(=O)N[C@@H](CC(C)C)C(=O)N[C@@H](CCCCN)C(=O)N[C@@H](CCC(=O)O)C(=O)N[C@@H](CC(C)C)C(=O)N[C@@H](C)C(=O)N[C@@H](CO)C(=O)N[C@H](C(=O)N[C@@H](Cc1ccc(O)cc1)C(=O)N[C@H](C(=O)N[C@@H](CC(N)=O)C(N)=O)C(C)C)[C@@H](C)O)[C@@H](C)O)C(C)C)[C@@H](C)O` [GIGTKFLGGVKTALKGALKELASTYVN], the MIC [1] was 27.4 µM (≈ 75 µg/mL), the MIC [2] was 27.4 µM (≈ 75 µg/mL) and the MIC [3] was 3.43 µM (≈ 9.4 µg/mL). For the same molecule, the MIC [4] was 1.72 µM (≈ 4.7 µg/mL).
`CC[C@H](C)[C@H](N)C(=O)N[C@@H](CC(C)C)C(=O)NCC(=O)N[C@@H](CCCCN)C(=O)N[C@@H](CC(C)C)C(=O)N[C@@H](CC(C)C)C(=O)N[C@@H](CCCCN)C(=O)N[C@H](C(=O)N[C@@H](C)C(=O)N[C@@H](C)C(=O)NCC(=O)N[C@@H](CC(C)C)C(=O)N[C@@H](CC(C)C)C(=O)N[C@@H](CO)C(=O)N[C@@H](CC(N)=O)C(=O)N[C@@H](CC(C)C)C(N)=O)[C@@H](C)O` [ILGKLLKTAAGLLSNL] was tested, and the MIC [5] was ≥ 64 µM, the MIC [6] was ≥ 128 µM and the MIC [7] was ≥ 64 µM. It also gave an MIC [8] of 64 µM (≈ 104 µg/mL), an MIC [9] of 64 µM (≈ 104 µg/mL) and an MIC [4] of 8 µM (≈ 13 µg/mL). For the same molecule, the MIC [10] was 4 µM (≈ 6.5 µg/mL), the MIC [11] was 4 µM (≈ 6.5 µg/mL) and the MIC [12] was ≥ 64 µM.
For `CC(=O)N[C@@H](CCCN=C(N)N)C(=O)N[C@@H](CCCN=C(N)N)C(=O)N[C@@H](CCCN=C(N)N)C(=O)N[C@@H](C)C(=O)N[C@@H](C)C(=O)N[C@@H](Cc1ccccc1)C(=O)N[C@@H](C)C(=O)N[C@@H](C)C(=O)N[C@@H](Cc1c[nH]c2ccccc12)C(=O)N[C@@H](C)C(=O)N[C@@H](C)C(=O)N[C@@H](Cc1ccccc1)C(=O)N[C@@H](C)C(=O)N[C@@H](C)C(=O)N[C@@H](CCCN=C(N)N)C(=O)N[C@@H](CCCN=C(N)N)C(=O)N[C@@H](CCCN=C(N)N)C(N)=O` [RRRAAFAAWAAFAARRR], the MIC [13] was ≥ 100 µM, the MIC [14] was ≥ 50 µM and the MIC [15] was ≥ 100 µM.
For `NCCCC[C@H](NC(=O)[C@H](Cc1c[nH]c2ccccc12)NC(=O)[C@H](CCCCN)NC(=O)[C@H](Cc1c[nH]c2ccccc12)NC(=O)[C@H](CCCCN)NC(=O)[C@H](Cc1c[nH]c2ccccc12)NC(=O)[C@@H](N)CCCCN)C(=O)N[C@@H](Cc1c[nH]c2ccccc12)C(N)=O` [KWKWKWKW], the MIC [16] was 6.25 µM and 12.5 µM, the MIC [17] was ≥ 50 µM and the MIC [18] was ≥ 32 µM. The MIC [19] was ≥ 32 µM, the MIC [20] was 6.25 µM and 12.5 µM and the MIC [21] was 12.5 µM (≈ 15.9 µg/mL). For the same molecule, the MIC [22] was 6.25 µM and 12.5 µM, the MIC [23] was 3.12 µM (≈ 3.98 µg/mL) and the MIC [24] was 3.12 µM (≈ 3.98 µg/mL). The MIC [25] was 12.5 µM (≈ 15.9 µg/mL), the MIC [26] was 6.25 µM and 12.5 µM and the MIC [27] was 6.25 µM and 12.5 µM. The MIC [28] was 1.56 µM (≈ 1.99 µg/mL), the MIC [29] was 12.5 µM (≈ 15.9 µg/mL) and the MIC [30] was 12.5 µM (≈ 15.9 µg/mL). For the same molecule, the MIC [31] was 12.5 µM (≈ 15.9 µg/mL), the MIC [32] was 12.5 µM (≈ 15.9 µg/mL) and the MIC [33] was 12.5 µM (≈ 15.9 µg/mL). For the same molecule, the MIC [34] was 6.25 µM and 12.5 µM.
For `CC[C@H](C)[C@H](NC(=O)CNC(=O)[C@H](CO)NC(=O)[C@H](CC(C)C)NC(=O)[C@@H](NC(=O)[C@H](CCCN=C(N)N)NC(=O)CNC(=O)[C@@H](NC(=O)[C@H](CC(C)C)NC(=O)[C@@H]1CCCN1C(=O)[C@H](CC(C)C)NC(=O)[C@H](C)N)[C@@H](C)CC)C(C)C)C(=O)N[C@@H](CC(C)C)C(N)=O` [ALPLIGRVLSGIL], the MIC [35] was 20 µM (≈ 26.4 µg/mL), the MIC [36] was > 40 µM and the MIC [3] was > 40 µM. The MIC [37] was ≥ 40 µM, the MIC [38] was ≥ 40 µM and the MIC [39] was ≥ 40 µM.
In the case of `CC(C)C[C@H](NC(=O)[C@H](CCCN=C(N)N)NC(=O)CNC(=O)CNC(=O)[C@@H](NC(=O)[C@H](CCCCN)NC(=O)[C@@H]1CCCN1C(=O)[C@H](Cc1ccccc1)NC(=O)[C@H](Cc1ccc(O)cc1)NC(=O)[C@H](CCC(N)=O)NC(=O)[C@H](CCCCN)NC(=O)CN)C(C)C)C(=O)N[C@@H](CO)C(=O)NCC(=O)N[C@@H](CCCCN)C(=O)N[C@@H](C)C(=O)N1CCC[C@H]1C(=O)N[C@@H](CC(C)C)C(=O)N[C@@H](C)C(=O)N[C@@H](C)C(=O)N[C@@H](CCCCN)C(=O)N[C@H](C(=O)N[C@@H](Cc1cnc[nH]1)C(=O)N[C@@H](CCCN=C(N)N)C(=O)N[C@@H](CCCN=C(N)N)C(=O)N[C@@H](CC(C)C)C(=O)N[C@@H](CCCCN)C(=O)N1CCC[C@H]1C(N)=O)[C@@H](C)O` [GKQYFPKVGGRLSGKAPLAAKTHRRLKP], the MIC [1] is reported as 3.92 µM (≈ 12 µg/mL), the MIC [40] is reported as 9.14 µM (≈ 28 µg/mL) and the MIC [41] is reported as 3.92 µM (≈ 12 µg/mL).
With `CC[C@H](C)[C@H](NC(=O)CNC(=O)[C@H](CCCCN)NC(=O)[C@H](CCCCN)NC(=O)[C@H](CC(C)C)NC(=O)[C@H](CO)NC(=O)CNC(=O)[C@H](CC(C)C)NC(=O)CNC(=O)[C@H](C)NC(=O)[C@H](CCCCN)NC(=O)[C@H](Cc1ccccc1)NC(=O)[C@@H](NC(=O)[C@H](CCCCN)NC(=O)[C@H](CCCCN)NC(=O)[C@H](CC(C)C)NC(=O)CN)[C@@H](C)CC)C(=O)N[C@@H](C)C(=O)N[C@@H](C)C(=O)N[C@@H](Cc1cnc[nH]1)C(=O)N[C@H](C(=O)N[C@@H](C)C(=O)N[C@@H](CO)C(N)=O)C(C)C` [GLKKIFKAGLGSLKKGIAAHVAS] the MIC [42] was 20 µM (≈ 45.9 µg/mL), the MIC [5] was 10 µM (≈ 22.9 µg/mL) and the MIC [6] was ≥ 40 µM. The MIC [7] was 10 µM (≈ 22.9 µg/mL) and the MIC [4] was > 250 µM.
